According to paper PMC5979480 (International Journal of Molecular Sciences, 2018):

Experiments:
[1] = tested on: 6-OHDA hemi-parkinsonian (PD) rats; assay: Open-field test (locomotor and anxiety-like behavior); assay type: in vivo, Sprague-Dawley rats; settings: 15 nmol/kg/day s.c. pump
Experimental: (§1) Modified surgical procedures were based on our previously described methods. Under Zoletil-Rumpun (10 mg/kg: 2 mg/kg, i.p.) anesthesia, SD rats were placed in a stereotaxic frame with the nose bar positioned 3.3 mm below the interaural line. Unilateral 6-hydroxydopamine (6-OHDA, 8 μg dissolved in 0.9% saline with 0.02% ascorbic acid) was injected for DA lesions into the left median forebrain bundle (MFB, coordinates: anteroposterior [49, 53], −4.3 mm; lateral (L), 1.6 mm from bregma; ventral (V), 8.2 mm from the dura).
In addition to its well-known motor manifestations, PD is also known to elicit neuropsychiatric disorders such as anxiety. We thus used open field measurements in the lesioned animals, as well as in intact animals, to evaluate not only general motor activity but also anxiety-related exploratory activity. Rats were first habituated to an open field Plexiglas arena (60 × 60 × 100 cm) for 10 min at day 4 and 5 post-lesion. At day 6 post-lesion, locomotor activity and anxiety-like behavior were monitored for 10 min using open field tests. The rat behaviors were recorded using an EthoVision system. Total distance, velocity, and freezing times in the open-field were considered general locomotor activities. The number and retention times in the central zone of the open field were measured as anxiety-like behaviors. The center of the open field was defined as a 30 × 30 cm^2 in the geometric center of the arena.

[2] = tested on: 6-OHDA hemi-parkinsonian (PD) rats; assay: Apomorphine-induced contralateral rotation; assay type: in vivo, Sprague-Dawley rats
Experimental: as §1
Apomorphine (0.5 mg/kg in 0.1% ascorbic acid, s.c.)-induced contralateral rotations were recorded using a digital video camera to count the number of rotations for 60 min at weekly intervals up to 4 weeks post-lesion (i.e., 7, 14, 21, and 28 days post-lesion) using the same test conditions. The net number of rotations was calculated (contralateral minus ipsilateral full turns). In unilaterally 6-OHDA lesioned animals, apomorphine-induced contralateral rotation is a well-established correlate of dopamine depletion, with rotation levels seen here indicative of an 80–90% loss.

TBI injury in rats = settings: 38.5 µg/kg/day GIP (equivalent to 7.8 nmol/kg/day); cited from earlier work
[3] = in vivo; cited from earlier work

In the case of CC[C@H](C)[C@H](NC(=O)[C@H](CO)NC(=O)[C@H](Cc1ccc(O)cc1)NC(=O)[C@H](CC(=O)O)NC(=O)[C@H](CO)NC(=O)[C@@H](NC(=O)[C@H](Cc1ccccc1)NC(=O)[C@@H](NC(=O)CNC(=O)[C@H](CCC(=O)O)NC(=O)[C@H](C)NC(=O)[C@@H](N)Cc1ccc(O)cc1)[C@@H](C)O)[C@@H](C)CC)C(=O)N[C@@H](C)C(=O)N[C@@H](CCSC)C(=O)N[C@@H](CC(=O)O)C(=O)N[C@@H](CCCCN)C(=O)N[C@H](C(=O)N[C@@H](Cc1c[nH]cn1)C(=O)N[C@@H](CCC(N)=O)C(=O)N[C@@H](CCC(N)=O)C(=O)N[C@@H](CC(=O)O)C(=O)N[C@@H](Cc1ccccc1)C(=O)N[C@H](C(=O)N[C@@H](CC(N)=O)C(=O)N[C@@H](Cc1c[nH]c2ccccc12)C(=O)N[C@@H](CC(C)C)C(=O)N[C@@H](CC(C)C)C(=O)N[C@@H](C)C(=O)N[C@@H](CCC(N)=O)C(=O)N[C@@H](CCCCN)C(=O)NCC(=O)N[C@@H](CCCCN)C(=O)N[C@@H](CCCCN)C(=O)N[C@@H](CC(N)=O)C(=O)N[C@@H](CC(=O)O)C(=O)N[C@@H](Cc1c[nH]c2ccccc12)C(=O)N[C@@H](CCCCN)C(=O)N[C@@H](Cc1c[nH]cn1)C(=O)N[C@@H](CC(N)=O)C(=O)N[C@H](C(=O)N[C@H](C(=O)N[C@@H](CCC(N)=O)C(=O)O)[C@@H](C)O)[C@@H](C)CC)C(C)C)[C@@H](C)CC [GIP, glucose-dependent insulinotropic polypeptide], the “Open-field locomotor behavior (total distance moved, velocity, freezing time)” value ([1]; 10 min open field post-lesion, GIP vs saline p = 0.031, 0.021, 0.034, saline n = 8, GIP15 n = 5, naïve n = 6) is reported as “improved locomotor behavior to a level similar to the naïve group”, the “Number of entries into the central zone, GIP vs saline” value ([1]; 10 min open field, p = 0.008) is reported as “significantly higher” and the “Retention times in the central zone, GIP vs saline” value ([1]; 10 min open field, p = 0.218) is reported as “trended to improve this deficit”. The “Sensitization (progressive increase in apomorphine-induced rotations with repeated weekly tests)” value ([2]; 15 nmol/kg/day GIP, weekly tests up to 4 weeks post-lesion, time effect GIP p = 0.940) was “not seen”, the “Apomorphine-induced rotation, GIP vs saline” value ([2]; 15 nmol/kg/day s.c. pump for 2 weeks from 2 days pre-lesion, apomorphine 0.5 mg/kg s.c., 60 min, week 3 (p = 0.042) and week 4 (p = 0.019) post-6-OHDA, saline n = 9, GIP n = 10) was “statistically significant differences” and the “Initial levels of apomorphine-induced rotations” value ([2]; apomorphine 0.5 mg/kg, both lesioned groups (saline and GIP 15 nmol/kg/day)) was “over 400”. For the same molecule, the “Effect on TBI injury” value (TBI injury in rats) was “effectively mitigated TBI injury”.
For Exenatide, the “Share of plasma levels reaching the brain” value [3] is listed as about 2%.
